Assay results reported in BindingDB's records for patent US20250122221 (Nanjing Zaiming Pharmaceutical, 2025).
pIC50: −log10 of the molar value.

Target: DNA polymerase theta (Homo sapiens, UniProt O75417)
Assay: POLQ Enzyme Activity Inhibition Assay
Procedure: The compounds to be tested were diluted to different concentrations in dimethyl sulfoxide (DMSO) using the Echo 650 pipetting system, and transferred to a 384-well plate, 20 μL/well of 100 nM POLQ was added, and the mixture was incubated at room temperature for 15 minutes. […] 20 μL/well of reaction mixture solution was added to start the enzyme reaction. […] The concentration range was from 10 μM to 0.0005 μM, and the final concentration of DMSO in the system was 0.2% v/v. The 384-well plate was reacted at room temperature for 20 minutes, and then the OD value at 340 nm was read with an Envision microplate reader.

Sequence of DNA polymerase theta (O75417 whole entry): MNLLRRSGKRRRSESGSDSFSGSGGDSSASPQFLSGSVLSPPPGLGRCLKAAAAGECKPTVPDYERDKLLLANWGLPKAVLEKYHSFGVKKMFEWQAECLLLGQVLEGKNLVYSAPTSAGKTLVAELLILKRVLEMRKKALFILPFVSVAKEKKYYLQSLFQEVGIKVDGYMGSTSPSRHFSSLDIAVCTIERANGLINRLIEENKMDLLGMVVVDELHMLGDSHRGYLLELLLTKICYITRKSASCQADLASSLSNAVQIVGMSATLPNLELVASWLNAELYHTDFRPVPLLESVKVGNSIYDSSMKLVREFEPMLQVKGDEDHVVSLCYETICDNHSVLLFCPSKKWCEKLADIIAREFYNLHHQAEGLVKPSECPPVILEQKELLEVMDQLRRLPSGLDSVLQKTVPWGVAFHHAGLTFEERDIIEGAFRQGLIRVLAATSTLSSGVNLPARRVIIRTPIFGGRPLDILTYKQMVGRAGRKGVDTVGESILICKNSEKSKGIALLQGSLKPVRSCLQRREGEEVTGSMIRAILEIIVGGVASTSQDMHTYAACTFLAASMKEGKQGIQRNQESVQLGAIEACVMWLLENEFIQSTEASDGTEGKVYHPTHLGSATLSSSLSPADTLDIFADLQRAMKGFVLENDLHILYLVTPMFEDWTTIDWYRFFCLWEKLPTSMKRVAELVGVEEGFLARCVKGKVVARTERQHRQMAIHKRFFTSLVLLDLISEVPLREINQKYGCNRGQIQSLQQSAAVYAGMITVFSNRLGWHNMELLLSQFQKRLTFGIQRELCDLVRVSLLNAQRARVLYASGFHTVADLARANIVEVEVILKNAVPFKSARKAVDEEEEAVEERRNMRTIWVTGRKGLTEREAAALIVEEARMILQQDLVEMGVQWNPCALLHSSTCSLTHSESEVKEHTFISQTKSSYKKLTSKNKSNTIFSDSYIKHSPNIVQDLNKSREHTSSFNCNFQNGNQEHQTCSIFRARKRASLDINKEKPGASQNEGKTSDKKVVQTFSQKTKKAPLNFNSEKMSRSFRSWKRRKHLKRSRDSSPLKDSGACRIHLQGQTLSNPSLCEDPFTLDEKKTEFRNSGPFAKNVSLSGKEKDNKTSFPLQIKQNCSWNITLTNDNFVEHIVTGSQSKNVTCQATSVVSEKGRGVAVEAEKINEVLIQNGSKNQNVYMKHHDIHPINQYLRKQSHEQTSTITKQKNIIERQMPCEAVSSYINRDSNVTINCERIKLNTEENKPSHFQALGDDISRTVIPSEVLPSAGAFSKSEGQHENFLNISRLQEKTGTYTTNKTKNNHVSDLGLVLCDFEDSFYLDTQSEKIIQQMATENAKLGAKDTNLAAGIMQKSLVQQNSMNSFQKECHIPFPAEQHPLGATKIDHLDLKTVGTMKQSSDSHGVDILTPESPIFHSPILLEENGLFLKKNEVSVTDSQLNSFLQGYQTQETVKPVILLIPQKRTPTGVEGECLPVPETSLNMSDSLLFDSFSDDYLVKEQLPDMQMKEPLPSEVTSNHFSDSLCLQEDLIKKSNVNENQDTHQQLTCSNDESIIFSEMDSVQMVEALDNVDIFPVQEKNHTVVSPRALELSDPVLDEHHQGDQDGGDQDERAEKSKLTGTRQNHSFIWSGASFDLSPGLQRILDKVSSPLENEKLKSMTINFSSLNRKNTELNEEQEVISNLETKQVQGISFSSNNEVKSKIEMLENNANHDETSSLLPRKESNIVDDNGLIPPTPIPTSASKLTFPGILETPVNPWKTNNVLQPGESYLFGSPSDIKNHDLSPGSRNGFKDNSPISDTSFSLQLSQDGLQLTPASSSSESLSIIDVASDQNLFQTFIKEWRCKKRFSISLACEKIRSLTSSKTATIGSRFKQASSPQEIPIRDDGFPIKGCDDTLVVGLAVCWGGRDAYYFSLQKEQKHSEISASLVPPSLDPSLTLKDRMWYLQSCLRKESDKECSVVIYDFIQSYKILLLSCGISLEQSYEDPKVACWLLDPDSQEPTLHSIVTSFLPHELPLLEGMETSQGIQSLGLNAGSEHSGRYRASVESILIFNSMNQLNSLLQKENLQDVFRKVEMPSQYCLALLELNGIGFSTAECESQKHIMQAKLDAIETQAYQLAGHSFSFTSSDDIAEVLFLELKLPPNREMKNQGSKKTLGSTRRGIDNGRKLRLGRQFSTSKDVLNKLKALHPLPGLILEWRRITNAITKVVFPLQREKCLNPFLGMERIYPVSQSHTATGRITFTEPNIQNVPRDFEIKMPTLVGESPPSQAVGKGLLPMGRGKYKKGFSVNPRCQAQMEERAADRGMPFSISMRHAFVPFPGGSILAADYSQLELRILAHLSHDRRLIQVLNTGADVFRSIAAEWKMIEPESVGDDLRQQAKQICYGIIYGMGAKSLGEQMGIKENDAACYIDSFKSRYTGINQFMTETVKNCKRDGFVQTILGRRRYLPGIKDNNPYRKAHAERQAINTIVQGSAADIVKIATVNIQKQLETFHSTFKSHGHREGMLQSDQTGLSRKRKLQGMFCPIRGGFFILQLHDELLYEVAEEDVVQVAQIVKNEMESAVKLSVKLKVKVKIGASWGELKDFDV

## COc1ccccc1-c1cc2c(cc1C(=O)Nc1nc3ncc(-c4ccc(C#N)cc4)nc3s1)OCO2 [US20250122221, Compound 56]
  pIC50: > 7.00
